We go through two compounds from PMC12289521, “Ligand binding to a Ni–Fe cluster orchestrates conformational changes of the CO-dehydrogenase–acetyl-CoA synthase complex” (Nature Catalysis, 2025).

Bounds are passed on as bounds.

The target in test [1] is T1, acetyl-CoA synthase (ACS) (Carboxydothermus hydrogenoformans, UniProt Q3ACS4).
T1 construct: gene acsB; CODH–ACS complex, heterologously expressed in E. coli; with CO-dehydrogenase (CODH)
T1 sequence (Q3ACS4 1-732): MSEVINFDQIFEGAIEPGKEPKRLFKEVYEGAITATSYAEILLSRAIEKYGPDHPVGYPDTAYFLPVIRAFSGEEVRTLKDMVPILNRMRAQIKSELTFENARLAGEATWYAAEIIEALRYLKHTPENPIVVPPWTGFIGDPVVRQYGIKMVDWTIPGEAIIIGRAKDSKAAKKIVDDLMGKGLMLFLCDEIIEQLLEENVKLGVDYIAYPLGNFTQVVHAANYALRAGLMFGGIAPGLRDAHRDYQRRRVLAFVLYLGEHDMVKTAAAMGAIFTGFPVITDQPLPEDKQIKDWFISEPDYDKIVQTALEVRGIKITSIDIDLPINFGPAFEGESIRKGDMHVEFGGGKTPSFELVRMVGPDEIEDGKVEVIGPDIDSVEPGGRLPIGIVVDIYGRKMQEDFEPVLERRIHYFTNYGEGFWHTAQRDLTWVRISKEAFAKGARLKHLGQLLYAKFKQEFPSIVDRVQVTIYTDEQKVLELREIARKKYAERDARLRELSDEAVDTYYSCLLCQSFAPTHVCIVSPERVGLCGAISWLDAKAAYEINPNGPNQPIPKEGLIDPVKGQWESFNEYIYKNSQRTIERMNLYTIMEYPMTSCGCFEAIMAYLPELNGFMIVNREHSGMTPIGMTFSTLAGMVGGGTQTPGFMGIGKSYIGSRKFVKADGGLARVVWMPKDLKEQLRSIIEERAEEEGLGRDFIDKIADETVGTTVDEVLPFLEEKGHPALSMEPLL
Description: ITC of methyl transfer to cluster A (two-substrate-two-product fit). Type of test: binding.

Test [2] deals with T1, acetyl-CoA synthase (ACS). Description: ITC of CODH–ACS complex with […] Ti(III)–EDTA, […] °C. Type of test: binding.

On to methyl cobinamide, for which the “ITC of methyl transfer to cluster A (two-substrate-two-product fit)” value in test [1] was determined as 341. By Kd is commonly meant the constant that tells how readily two partners part at equilibrium. Lower therefore signals tighter binding. `CC(C)(COP(=O)(O)OP(=O)(O)OC[C@H]1O[C@@H](n2cnc3c(N)ncnc32)[C@H](O)[C@@H]1OP(=O)(O)O)[C@@H](O)C(=O)NCCC(=O)NCCS` [CoA] yielded a dissociation constant (Kd) in test [2] of less than 88 µM.
